Laboratory results published in patent publication US20240091115A1, “Oral Care Compositions and Methods of Use” (Colgate-Palmolive Company, priority 2019, published 2024).

Assays:
mixed species biofilm = assay: Seahorse XFe Extracellular Flux Analyzer, bacterial metabolism (OCR/ECAR) in mixed species biofilm; format: cell-based; conditions: oxygen consumption rate
Protocol: (§1) Samples with varying amounts of cannabidiol (CBD) are assessed for their effects on cellular metabolism with and without various source of zinc. Using the Seahorse XF^e Extracellular Flux Analyzer, biofilm samples are grown for 48 hrs. […] The biofilms are harvested for culture. Diluted biofilm and toothpaste slurry are loaded to each well. Glycolysis—Extracellular Acidification Rate (ECAR) and Mitochondrial Respiration—Oxygen Consumption Rate (OCR) is measured for 25-50 cycles (˜360 minutes). […] The “CBD Oil” is 5% CBD (by wt. of the CBD Oil) in Hemp seed oil.
Where the “OCR” is oxygen consumption rate units as measured using the Seahorse XF^e Extracellular Flux Analyzer.: […]

S. mutans biofilms = assay: Seahorse XFe Extracellular Flux Analyzer, bacterial metabolism (OCR/ECAR) in S. mutans biofilm; format: cell-based; conditions: CBD and arginine slurries
Protocol: as §1

In the case of `[F][Sn][F]` [0.2% by wt. Stannous Fluoride, Stannous Fluoride], the “Average (OCR) (p mole/min)” value (mixed species biofilm; Table 3, mixed species biofilm, CBD and stannous fluoride slurries, untreated 11489.9) is reported as 10440.7 p mole/min.
With `N=C(N)NCCC[C@H](N)C(=O)O` [1% Arg, arginine] the “OCR Value (p mole/min)” value (S. mutans biofilms; Table 4, oxygen consumption rate, untreated 1449.50) was 518.58 p mole/min and the “ECR Value (mpH/min)” value (S. mutans biofilms; Table 5, extracellular acidification rate, untreated 701.2) was 518.6 mpH/min.
`CC(O)C(=O)[O-].CC(O)C(=O)[O-].[Zn+2]` (stereo not shown) [1.5% Zinc Lactate, Zinc Lactate] was tested, and the “Average (OCR) (p mole/min)” value (mixed species biofilm; Table 1, mixed biofilm, CBD and zinc lactate, untreated 25,669.50) was 21,900.63 p mole/min.
